Laboratory results: patent US10233157B2, “SIK inhibitor for use in a method of treating an inflammatory and/or immune disorder” (Dana-Farber Cancer Institute, Inc., priority 2012, dated 2019)
“Also recorded” adds a separate entry of the source.

Columns and labels:
AMPK-related kinases = assay type: biochemical; details: members of the AMPK subfamily other than SIKs
Procedure: (§1) Recombinant SIK1, SIK2, SIK3 were expressed as GST-fusion proteins in HEK293 cells and purified on a glutathione-Sepharose column. […] FLAG-CRTC3 was immunoprecipitated using anti-FLAG M2 agarose, washed in kinase buffer (50 mM Tris/HCl pH 7.4, 10 mM Mg acetate, 0.1 mM EGTA, 2 mM DTT) and reactions initiated by adding 4 U/ml recombinant kinase with 0.1 mM ATP (specific activity 3000 cpm/pmol). Phosphorylation of CRTC3 was monitored by autoradiography as well as immunoblotting using phosphospecific antibodies raised against Ser162, Ser329 and Ser370. […] Kinase profiling was performed as previously described (7) and performed by the International Centre for Kinase Profiling (www.kinase-screen.mrc.ac.uk).

LPS-stimulated BMDMs = assay: Expression of macrophage markers in LPS-stimulated BMDMs (qPCR); assay type: cell-based, mouse
Procedure: FIGS. 10A to 10E. Inhibition of the LKB1-SIK-CRTC3-IL10 signaling axis drives the expression of markers of regulatory macrophages. (FIG. 10A) Effect of SIK inhibitors on the LPS-stimulated expression of LIGHT, SPHK1, Arg1 and IL-1ra (n=4, mean±SD). […] (FIG. 10C) Elevated expression of markers of regulatory macrophage in LKB1−/− macrophages. BMDMs were generated from LysM-Cre/LKB1+/+ and LysM-Cre/LKB1flox/flox mice and stimulated with 100 ng/ml LPS (mean±SD, n=3). (FIG. 10D) CRTC3 is required for the induction of markers of regulatory macrophages. […] LIGHT and SPHK1 mRNA was measured at 2 h and Arg1 at 8 h post-LPS stimulation (mean±SD, n=4). […] The experiment was carried out as in (FIG. 10D) except that BMDMs were generated from IL-10+/+ and IL-10−/− mice (mean±SD, n=4).
(§2) mRNA was extracted from cells using the RNeasy Micro Kit following the manufacturers' instructions (Qiagen). cDNA was generated from 1 μg of total RNA using the iScript cDNA synthesis kit and quantified by qPCR using the SsoFast EvaGreen Supermix on a CFX96 real time system (Bio-Rad Laboratories). The relative expression of each gene was calculated from Ct values using the Pfaffl method (5) and was normalized against the mRNA levels of 18S RNA or GAPDH. Results are reported relative to untreated control cells, which was set to 1. The following primers were used: […]

[1] = system: protein kinases that possess a threonine residue at the gatekeeper site (Src, Lck, Yes, BTK, FGF and Ephrin receptors); assay: Kinase profiling, kinases with threonine at the gatekeeper site; assay type: biochemical; details: kinase panel; 1 μM KIN112, 0.1 μM HG-9-91-01
Procedure: as §1

SIK isoforms = assay: Kinase assays, SIK isoforms; assay type: biochemical; details: in vitro
[2] = system: LPS-stimulated macrophages; assay: Cytokine secretion in TLR-stimulated bone-marrow derived macrophages; assay type: cell-based, mouse
Procedure: Bone-marrow derived macrophages were differentiated for 7 days in DMEM supplemented with 5 ng/ml recombinant M-CSF (R&D systems), 2 mM glutamine, 10% foetal calf serum, penicillin and streptomycin.
Following stimulation with ligands, the cell culture medium was removed, clarified by centrifugation for 10 min at 14000×g and the concentration of TNFα, IL-6, IL-10, IL-12p40, and RANTES were measured using the Bio-Plex Pro Assay system from Bio-Rad. IFNβ was measured using an ELISA kit from R&D Systems according to the manufacturers' instructions.
RNA was extracted using the RNeasy Micro Kit (Qiagen). cDNA was generated using the iScript cDNA synthesis kit and quantified by qPCR using the SsoFast EvaGreen Supermix (Bio-Rad Laboratories). […] Fold-induction for each gene was reported relative to untreated control cells, which was set to 1. The concentrations of TNFα, IL-6, IL-10, IL-12p40, and RANTES in culture supernatants were measured using the Bio-Plex Pro Assay system from Bio-Rad. Further details in supplementary information.
Following stimulation with ligands, the cell culture medium was removed, clarified by centrifugation for 10 min at 14000×g and the concentration of TNFα, IL-6, IL-10, IL-12p40 and RANTES were measured using the Bio-Plex Pro Assay system from Bio-Rad. IL-1ra and IFNβ were measured using ELISA kits from R&D Systems.

[3] = system: TLR-stimulated macrophages; assay: qPCR of CREB-dependent gene mRNA in TLR-stimulated macrophages; assay type: cell-based, mouse; details: for Nurr77 mRNA: LPS-stimulated macrophages; for IL-10 mRNA: TLR/LPS-stimulated macrophages
Procedure: Bone-marrow derived macrophages were differentiated for 7 days in DMEM supplemented with 5 ng/ml recombinant M-CSF (R&D systems), 2 mM glutamine, 10% foetal calf serum, penicillin and streptomycin. […]
mRNA was extracted from macrophages using the RNeasy Micro Kit following the manufacturers' instructions (Qiagen). cDNA was generated from 1 μg of total RNA using the iScript cDNA synthesis kit and quantified by qPCR using the SsoFast EvaGreen Supermix on a CFX96 real time system (Bio-Rad Laboratories). The relative expression of each gene was calculated from Ct values using the Pfaffl method^30 and was normalized against the mRNA levels of 18S RNA. The following primers were used: IL-10-F, […]; IL-10-R, […]; c-Fos-F, […]; c-Fos-R, […]; nurr1-F, […]; nurr1-R, […]; nurr77-F, […]; nurr77-R, […]; 18S-F, […]; 18S-R, […]; IL-1ra-F, […]; IL-1ra-R, […]; SPHK1-F, […]; SPHK1-R, […]; LIGHT-F, […]; LIGHT-R, […]; ArgI-F, […]; ArgI-R, […]; IFN-F, […]; IFNγ-R, […].
[…]. Biochem J 434:93-104) using the indicated antibodies. RNA was extracted using the RNeasy Micro Kit (Qiagen). cDNA was generated using the iScript cDNA synthesis kit and quantified by qPCR using the SsoFast EvaGreen Supermix (Bio-Rad Laboratories). The relative expression of each gene was calculated from Ct values using the Pfaffl method (Pfaffl M W (2001) A new mathematical model for relative quantification in real-time RT-PCR. Nucleic Acids Res 29:e45) and was normalized against the mRNA levels of 18S or GAPDH RNA. Fold-induction for each gene was reported relative to untreated control cells, which was set to 1. The concentrations of TNFα, IL-6, IL-10, IL-12p40, and RANTES in culture supernatants were measured using the Bio-Plex Pro Assay system from Bio-Rad. Further details in supplementary information.
as §2

LKB1−/− cells = assay: CREB-dependent gene transcription in IL-1 stimulated LKB1+/+ and LKB1−/− MEFs; assay type: cell-based, mouse
LPS-injected mice = assay: Cytokine levels in serum of LPS-challenged mice; assay type: in vivo, mouse
Procedure: C57BL/6 mice (8-12 week old male mice) were injected with vehicle control or 0-30 mg/kg of MRT68771. After 30 min, LPS was introduced by intraperitoneal injection (3.5 mg/kg). One hour later, the mice were sacrificed and the concentrations of TNFα, IL-10 and IFNβ in the sera were measured as described above.

[4] = Drug metabolism and pharmacokinetic properties; details: compared with MRT67307
CRTC3 = CRTC3 nuclear translocation (immunofluorescence, live imaging); assay type: cell-based; details: WT CRTC3
Text: FIGS. 15A to 15C. SIK inhibitors induce the dephosphorylation of CRTC3 at Ser62, Ser162, Ser329 and Ser370 and its translocation to the nucleus. (FIG. 15A) HEK293 cells were transfected with FLAG-CRTC2, FLAG-CRTC3 or FLG-CRTC3[S162A]. Aliquots of the cell extracts were subjected to SDS-PAGE and immunoblotting using an antibody that recognizes CRTC2 phosphorylated at Ser171. […] (FIG. 15B) HEK293 cells were transfected with FLAG-CRTC3, FLAG-CRTC3[S62A/S162A/S329A/S370A] (termed CRTC3-4A) or with empty vector (FLAG-ev). […]. (FIG. 15C) Inhibition of SIKs promotes the translocation of endogenous CRTC3 to the nucleus. […].
RAW264.7 cells were grown on glass coverslips and treated with inhibitors for 1 h. Cells were then fixed for 10 min in 3.7% paraformaldehyde, permeabilized for 5 min using 0.1% Triton X-100 in PBS and blocked for 45 min using 3% BSA in PBS. Cells were stained with anti-CRTC3 (Abcam 1:200) and anti-α-tubulin (Santa Cruz 1:500) followed by anti-rabbit-alexa488 and anti-mouse-alexa594 (Invitrogen 1:500), respectively. Antibodies were diluted in blocking buffer and incubated with the cells for 45 min. […] Images were recorded every 30 s for 1.5 min prior to the addition of drug after which cells were imaged for a further 60 min.

MARK isoforms = details: previously reported; cited from earlier work
IKK-related kinases = details: previously reported; cited from earlier work
NUAK isoforms = details: previously reported; cited from earlier work

COc1ccc(N(C(=O)Oc2c(C)cccc2C)c2ccnc(Nc3ccc(N4CCN(C)CC4)cc3)n2)c(OC)c1 [KIN112]
inhibition of AMPK-related kinases (AMPK-related kinases): did not inhibit any other member | IL-1ra mRNA (LPS-stimulated BMDMs; LPS-stimulated macrophages): greatly increased | mRNAs of regulatory macrophage markers (arginase-1, SPHK1, LIGHT) (LPS-stimulated BMDMs; TLR/LPS-stimulated macrophages): stimulating the production | switch of macrophage programme from classically activated towards regulatory phenotype (LPS-stimulated BMDMs; quiescent macrophages): switched their maturation programme from the classically activated route towards the regulatory phenotype | inhibition of protein kinases with a threonine residue at the gatekeeper site [1]: potent inhibitor; also recorded: inhibited | inhibition of SIKs (SIK isoforms): potent inhibitor; also recorded: potently inhibited; also recorded: possess SIK inhibitory activity | IL-10 secretion ([2]; LPS-stimulated macrophages): stimulate IL-10 secretion in a dose dependent manner; also recorded: increased | pro-inflammatory cytokine secretion ([2]; LPS-stimulated macrophages): greatly suppressed | IL-10 secretion ([2]; in response to TLR ligands): high levels of IL-10 | IL-12p40 secretion ([2]; in response to TLR ligands): low levels of IL-12p40 | Nurr77 mRNA [3]: increased | IL-10 mRNA [3]: increased | CREB-dependent gene transcription (LKB1−/− cells; LKB1+/+ cells): enhanced | transcription of Nurr1 and Nurr77 (LKB1−/− cells; LKB1−/− cells): only be increased to a small extent

Cn1cc(-c2ccc(Nc3ncc(C4CC4)c(NCCCNC(=O)C4CCC4)n3)cc2)cn1 [MRT68771]
inhibition of SIKs (SIK isoforms): possess SIK inhibitory activity | IL-10 in serum (LPS-injected mice): elevated levels of IL-10 | pro-inflammatory cytokines in serum (LPS-injected mice): reduced levels of pro-inflammatory cytokines | IL-10 secretion ([2]; LPS-stimulated macrophages): elevated levels of IL-10 | pro-inflammatory cytokine secretion ([2]; LPS-stimulated macrophages): reduced levels of pro-inflammatory cytokines | drug metabolism and pharmacokinetic properties [4]: improved drug metabolism and pharmacokinetic properties

CC1(C)C(=O)N([C@H]2CCc3c(O)cccc32)c2nc(Nc3cccc(CN4CCCC4)c3)ncc21 [MRT199665, 7-[(1S)-4-hydroxy-2,3-dihydro-1H-inden-1-yl]-5,5-dimethyl-2-{[3-(pyrrolidin-1-ylmethyl)phenyl]amino}-5,7-dihydro-6H-pyrrolo[2,3-d]pyrimidin-6-one]
CRTC3 nuclear translocation (CRTC3): translocates to the nucleus | IL-10 secretion ([2]; LPS-stimulated macrophages): stimulate IL-10 secretion in a dose dependent manner; also recorded: increased | Nurr77 mRNA [3]: increased | IL-10 mRNA [3]: increased

O=C(NCCCNc1nc(Nc2cccc(NC(=O)N3CCCC3)c2)ncc1I)c1cccs1 [BX795]
inhibition of MARKs (MARK isoforms): potent inhibitor | inhibition of IKK-related kinases (IKK-related kinases): potent inhibitor | inhibition of NUAK1 (NUAK isoforms): potent inhibitor

B1: IL-4: Murine IL-4 from Peprotech, control in macrophage marker experiments (protein, UniProt P07750 21-140, looked up)
Interleukin-4: HIHGCDKNHLREIIGILNEVTGEGTPCTEMDVPNVLTATKNTTESELVCRASKVLRIFYLKHGKTPCLKKNSSVLMELQRLFRAFRCLDSSISCTMNESKSTSLKDFLESLKSIMQMDYS
expression of FIZZ, Ym1 or Mgl2 (wound-healing M2a markers) (LPS-stimulated BMDMs): induced the expression | expression of LIGHT or SPHK1 (LPS-stimulated BMDMs; control experiments): not LIGHT or SPHK1
